{
  "source": "patent US8394428B1",
  "about": "“Formulations and methods for preventing eyebrow hair loss” (RMV Trademarks, LLC, priority 2010, dated 2013)",
  "origin": "cited, not measured here",
  "tested_on": "hair loss in human scalp",
  "details": "topical application, after administration of cyclophosphamide",
  "data": [
    {"smiles": "C=C1/C(=C\\C=C2/CCC[C@]3(C)[C@@H]([C@H](C)CCCC(C)(C)O)CC[C@@H]23)C[C@@H](O)C[C@@H]1O", "note": "[1,25-dihydroxyvitamin D3]", "values": [
      {"measurement": "Prevention or retardation of hair loss", "value": "failed to prevent or retard hair loss"}
    ]}
  ]
}
